Measured values as given in US4857507A, “Angiotensinogen analogs” (Abbott Laboratories, priority 1987, dated 1989).

Target: T1, human renal renin (Homo sapiens, UniProt P00797)
T1 construct: human renal renin, free from acid proteolytic activity; from tissue; host or cells: human kidney (from the word 'renal')
T1 sequence (P00797 67-406): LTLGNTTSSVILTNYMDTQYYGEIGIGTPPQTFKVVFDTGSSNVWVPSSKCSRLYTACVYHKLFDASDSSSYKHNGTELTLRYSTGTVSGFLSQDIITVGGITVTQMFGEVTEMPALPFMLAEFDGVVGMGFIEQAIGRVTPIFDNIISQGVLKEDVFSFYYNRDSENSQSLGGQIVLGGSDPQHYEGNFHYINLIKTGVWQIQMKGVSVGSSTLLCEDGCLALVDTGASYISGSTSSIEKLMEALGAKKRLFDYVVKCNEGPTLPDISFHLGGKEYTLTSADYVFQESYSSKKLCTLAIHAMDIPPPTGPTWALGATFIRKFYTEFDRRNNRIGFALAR
Assay: inhibition of human renal renin in vitro, angiotensin I formed measured by radioimmunoassay
Format: biochemical
Details: 37° C., pH 6.0; for IC50: human renal renin with human renin substrate (angiotensinogen)
Description: At the end of the incubation, the amount of angiotensin I formed is measured by radioimmunoassay and the molor concentration required to cause 50% inhibition, expressed as the IC50, is calculated.

| Compound | IC50 [nM] | % inhibition at 10^-5 M (compound at 10^-5 M, human renin substrate (angiotensinogen)) [%] |
| --- | --- | --- |
| CC(C)CCC(=O)NCC[C@H](O)[C@H](CC1CCCCC1)NC(=O)C(Cc1ccncn1)NC(=O)[C@H](Cc1ccccc1)NC(=O)OC(C)(C)C (mixture of isomers) [Example 62, Boc-Phe-dl-4-pyrimidinylalanine Amide of (3S,4S)-1-(3-Methylbutylcarbonylamino)-3-hydroxy-4-amino-5-cyclohexylpentane] | 20 | – |
| Boc-Phe-dl-3-pyrazolylalanine Amide of (3S,4S)-1-(3-Methylbutylcarbonylamino)-3-hydroxy-4-amino-5-cyclohexylpentane [Example 58] | 6 | – |
| CC(C)CCNC(=O)C(CC(O)C(CC(C)C)NC(=O)C(C)NC(=O)C(Cc1ccccc1)NC(=O)OC(C)(C)C)c1ccccc1 (stereo not drawn) [Example 46, Boc-Phe-Ala amide of 5-amino-4-hydroxy-77-methyl-2-phenyloctanoic acid isoamyl amide] | 3000 | – |
| Boc-Phe-His amide of (3S,4S)-4-amino-3-hydroxy-11-isoamylsulfonyl-6-methylheptane [Example 22] | 100 | – |
| CCCSCC(=O)NCC[C@H](O)[C@H](CC1CCCCC1)NC(=O)C(Cc1cnc[nH]1)NC(=O)C(Cc1ccccc1)NC(=O)OC(C)(C)C (stereo partly drawn) [Example 67, Boc-Phe-His Amide of (3S,4S)-1-(2-Propylmercaptoacetylamino)-3-hydroxy-4-amino-5-cyclohexylpentane] | 25 | – |
| CC(C)C[C@H](NC(=O)C(Cc1cnc[nH]1)NC(=O)C(Cc1ccccc1)NC(=O)OC(C)(C)C)[C@@H](O)CCS(=O)(=O)CCc1ccccc1 (stereo partly drawn) [Example 23, Boc-Phe-His amide of (3S,4S)-4-amino-3-hydroxy-6-methyl-1-phenethylsulfonylheptane] | 80 | – |
| CC(C)CCC(=O)NC(CC(O)C(CC(C)C)NC(=O)[C@H](C)NC(=O)[C@H](Cc1ccccc1)NC(=O)OC(C)(C)C)c1ccccc1 (stereo partly drawn) [Example 42, Boc-Phe-Ala amide of 4-amino-3-hydroxy-6-methyl-1-(4-methylvaleryl)amino-1-phenylheptane] | – | 41 |
| CC(C)C[C@H](NC(=O)C(C)NC(=O)C(Cc1ccccc1)NC(=O)OC(C)(C)C)[C@@H](O)CCSCCc1ccccc1 (stereo partly drawn) [Example 16, Boc-Phe-Ala amide of (3S,4S)-4-amino-3-hydroxy-6-methyl-1-phenethylmercaptoheptane] | 4000 | – |
| CCCS(=O)(=O)CC(=O)NCC[C@H](O)[C@H](CC1CCCCC1)NC(=O)[C@H](Cc1cnc[nH]1)NC(=O)[C@H](Cc1ccccc1)NC(=O)OC(C)(C)C [Example 68, Boc-Phe-His Amide of (3S,4S)-1-(2-Propylsulfonylacetylamino)-3-hydroxy-4-amino-5-cyclohexylpentane] | 20 | – |

More lines, now with the values ahead:

| IC50 [nM] | % inhibition at 10^-5 M (compound at 10^-5 M, human renin substrate (angiotensinogen)) [%] | Compound |
| --- | --- | --- |
| 2.5 | – | CC(C)C[C@H](NC(=O)[C@H](Cc1ccccc1)NC(=O)OC(C)(C)C)C(=O)N[C@@H](CC1CCCCC1)C(=O)C(F)(F)CN=[N+]=[N-] [Example 88, Boc-Phe-Leu amide of (4S)-3-oxo-4-amino-2,2-difluoro-1-azido-5-cyclohexylpentane] |
| 25 | – | CC(C)C[C@H](NC(=O)[C@H](Cc1ccccc1)NC(=O)OC(C)(C)C)C(=O)N[C@@H](CC1CCCCC1)[C@@H](O)C(F)(F)CSC(C)C [Example 83(A), Boc-Phe-Leu amide of (3R,4S)-3-hydroxy-4-amino-2,2-difluoro-1-isopropylmercapto-5-cyclohexylpentane] |
| 20 | – | CC(C)(C)OC(=O)NC(Cc1ccccc1)C(=O)NC(Cc1cnc[nH]1)C(=O)N[C@@H](CC1CCCCC1)[C@@H](O)CCN=[N+]=[N-] (stereo partly drawn) [Example 125, Boc-Phe-His Amide of (3S,4S)-1-Azido-3-hydroxy-4-amino-5-cyclohexylpentane] |
| 10 | – | CC(C)CC(NC(=O)C(Cc1ccccc1)NC(=O)OC(C)(C)C)C(=O)N[C@@H](CC1CCCCC1)[C@@H](O)C(F)(F)CS(=O)(=O)C(C)C (stereo partly drawn) [Example 86, Boc-Phe-Leu amide of (3R,4S)-3-hydroxy-4-amino-2,2-difluoro-1-isopropylsulfonyl-5-cyclohexylpentane] |
